# Tested on: Caenorhabditis elegans
# Assay: C. elegans L1 nematicidal dose response in 96-well plates, 5 day visual score (Example 2; same procedure for Example 7, Table 3)
# Format: in vivo
# Design: key to 5 Day Visual Score V1 / 5 Day Visual Score V2 / 5 Day Visual Score V3 / 5 Day Visual Score V4 / 5 Day Visual Score V6 / 5 Day Visual Score V5 / Initial HTS Run Visual Score / Follow-up HTS Run Visual Score: Dead: only stiff L1s (no movement); Dead (L4): worms are dead, but at a later larval stage; majority of worms are L1 (based on size) worms move when plate is tapped; majority of worms are L2 (based on size); majority of worms are L3 (based on size); majority of worms are L4 (based on size); AD: majority of worms are adult; #AD: 5 adult worms or less; B!: sterile (0-25 progeny); B: low broodsize (25-100 progeny); ˜B: moderate broodsize (100-250 progeny); <: reduced broodsize (250-500 progeny); OK: no effect (˜1000+ progeny)
# In short: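 Scoring was by eye at 100× on day 5, after incubation at 20° C, of 20 C. elegans L1s per well fed 1% E. coli HB101 in NGM. Compound columns V1–V6 spanned 70 μM to 0.3 μM in 3-fold steps, with 1.4% DMSO in the top well and as control.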
# [1] = dose response, dilution V1, day 5
# [2] = dose response, dilution V2, day 5
# [3] = dose response, dilution V3, day 5
# [4] = dose response, dilution V4, day 5
# [5] = dose response, dilution V5, day 5
# [6] = dose response, dilution V6, day 5
# [7] = dose response, dilution V4, 5 day
# [8] = dose response, dilution V5, 5 day
# [9] = dose response, dilution V6, 5 day
# [10] = 0.3 μM, C. elegans L1, scored day 5
# [11] = 0.9 μM, C. elegans L1, scored day 5
# [12] = 2.6 μM, C. elegans L1, scored day 5
# [13] = 23.3 μM, C. elegans L1, scored day 5
# [14] = 70 μM, C. elegans L1, scored day 5
SMILES,Follow-up HTS Run % Run [%],Follow-up HTS Run Visual Score,Follow-up HTS Run mOD [mOD],Initial HTS Run % Run [%],Initial HTS Run Visual Score,Initial HTS Run mOD [mOD],5 Day Visual Score V1 [1],5 Day Visual Score V3 [3],5 Day Visual Score V4 [4],5 Day Visual Score V5 [5],5 Day Visual Score V6 [6],5 Day Visual Score V4 [12],other results
CC1CC(C)CN(c2nc(NCc3c(F)cccc3F)ns2)C1 (stereo not shown) [compound 245],117,B! (sterile (0-25 progeny)),189,103,B!-Few Eggs,113,L2/Dead(L3),< (reduced broodsize (250-500 progeny)),OK (no effect (˜1000+ progeny)),OK (no effect (˜1000+ progeny)),OK (no effect (˜1000+ progeny)),–,5 Day Visual Score V2 [2]: #AD/˜B
CCN(Cc1ccccc1)c1nc(NCc2ccccc2)ns1 [compound 326],110,–,177,95,–,105,–,–,–,–,–,–,5 Day Visual Score V4 [7]: OK (no effect (˜1000+ progeny)); 5 Day Visual Score V5 [8]: OK (no effect (˜1000+ progeny)); 5 Day Visual Score V6 [9]: OK (no effect (˜1000+ progeny))
C=CCN(CC=C)c1nc(N2CCN(c3c(C)cccc3C)CC2)ns1 [compound 232],68,Dead/1AD/B,109,120,2AD/B,132,Dead,OK (no effect (˜1000+ progeny)),OK (no effect (˜1000+ progeny)),OK (no effect (˜1000+ progeny)),OK (no effect (˜1000+ progeny)),–,–
CCCCN(CC)c1nc(NCc2ccc(C(F)(F)F)cc2)ns1 [compound 308],130,–,210,112,–,123,L1,#AD/˜B,OK (no effect (˜1000+ progeny)),OK (no effect (˜1000+ progeny)),OK (no effect (˜1000+ progeny)),–,–
CCOc1cccc(C2ON=C(c3ccccc3OCC)C2C(=O)NCCc2ccc(OC)c(OCC)c2)c1 (stereo not shown) [AKC 124],–,–,–,–,–,–,–,–,–,–,–,L4/#AD/B,5 Day Visual Score V6 [10]: L4/#AD/B; 5 Day Visual Score V5 [11]: L4/#AD/B
CC(O)CN(CC(C)O)c1nc(NCc2ccc(C(F)(F)F)cc2)ns1 (stereo not shown) [compound 252],100,L2 - Dead L3,161,100,Dead(L3),110,Dead(L3),–,< (reduced broodsize (250-500 progeny)),< (reduced broodsize (250-500 progeny)),< (reduced broodsize (250-500 progeny)),–,5 Day Visual Score V2 [2]: Dead(L3)
COc1ccccc1-c1noc(C(C)CNC(=O)Nc2ccc(OC(F)(F)F)cc2)n1 (stereo not shown) [AKC 111],–,–,–,–,–,–,–,–,–,–,–,Dead(L3/L,"5 Day Visual Score V6 [10]: OK (no effect (˜1000+ progeny)); 5 Day Visual Score V3 (7.8 μM, C. elegans L1, scored day 5): L2; 5 Day Visual Score V2 [13]: Dead; 5 Day Visual Score V1 [14]: Dead"
CCN(c1nc(NCc2ccccc2)ns1)C1CCCCC1 [compound 325],111,L4/AD/B,179,103,L3/L4/AD/B,113,–,–,–,–,–,–,"5 Day Visual Score V2 (dose response, dilution V2, 5 day): #AD/˜B; 5 Day Visual Score V3 (dose response, dilution V3, 5 day): < (reduced broodsize (250-500 progeny)); 5 Day Visual Score V4 [7]: < (reduced broodsize (250-500 progeny)); 5 Day Visual Score V5 [8]: < (reduced broodsize (250-500 progeny)); 5 Day Visual Score V6 [9]: OK (no effect (˜1000+ progeny))"
Cc1ccc(C(CC(=O)c2ccc(C)c(C)c2)Nc2cc(Br)c(C)c(Br)c2)o1 (stereo not shown) [AKC 130],–,–,–,–,–,–,–,–,–,–,–,#AD/˜B,5 Day Visual Score V5 [11]: OK (no effect (˜1000+ progeny)); 5 Day Visual Score V2 [13]: #AD/-B; 5 Day Visual Score V1 [14]: Dead

# Reference: patent US20020002171A1, “Materials and methods for killing nematodes and nematode eggs” (priority 2000, published 2002)
